Assay results taken from patent US20150352108A1, “AMINO-PYRIMIDINE COMPOUNDS AS INHIBITORS OF TBK1 AND/OR IKK EPSILON” (Alzheimer's Institute of America, priority 2009, published 2015).

Legend:
[1] = test system: IFN-β production; test: Inhibition of IFN-β production (similar assay to HFLS-RA RANTES/IP-10); assay type: cell-based; settings: Homo sapiens
Experimental: HFLS cells (HFLS-RA) isolated from patients with rheumatoid arthritis were obtained from Cell Applications, Inc. (San Diego, Calif.). Cells were seeded in synoviocyte growth medium (Cell Applications, Inc., San Diego, Calif.) and allowed to grow overnight. The following day, media was replaced and cells were treated with varying concentrations of selected compounds according to Formula I (e.g., Example Compound 5) (0.1% final DMSO concentration). Two hours later, cells were induced with 50 µg/mL Poly(I:C) (Sigma-Aldrich, St. Louis, Mo.). Supernatants were collected 20 hours post-induction and used to monitor RANTES and IP-10 levels using DuoSet ELISA kits (Human CXCL10/IP-10 DuoSet & Human CCL5/RANTES DuoSet; R&D Systems, Inc., Minneapolis, Minn.).
Using a similar assay Compound 5 was also found to inhibit production of IFN-β with an IC50 of about 40 nM

[2] = test system: IKKε-mediated phosphorylation of IRF3; test: In-situ phosphorylation of IRF3 (pIRF3 Ser396 ELISA) in HEK293T cells cotransfected with IRF3 and IKKε; assay type: cell-based; settings: Homo sapiens, HEK-293T; HEK293T cells, 20 hours, text bins; read-out: IC50 for inhibition of the in-situ IKKε-mediated phosphorylation of IRF3
Method in brief: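 For the IRF3 ELISA, HEK293T cells cotransfected with IRF3 and IKKε were replated at 20,000/well and treated 20 h. Phospho-Ser396 IRF3 was measured by ELISA and normalised to DMSO, with viability checked by CellTiter-Glo. For IRF7, cells transfected with IRF7 and TBK1 were treated overnight, and pSer477/Ser479 IRF7 was detected by Western blot.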

IC50 [1]: ~0.04 µM
IC50 [2]: < 0.1 µM
SMILES: N#Cc1cc(-c2ccnc(Nc3ccc(N4CCOCC4)cc3)n2)ccc1OC1CCOCC1 [Example 5, 5-(2-{[4-(Morpholin-4-yl)phenyl]amino}pyrimidin-4-yl)-2-(tetrahydro-2H-pyran-4-yloxy)benzaonitrile]
